Test results: publication PMC8521618 (ACS Medicinal Chemistry Letters, 2021)

Experiment: Pharmacokinetics in mice
Conditions: for Vd: Vss, PK parameters (mouse)
[1] = CD1, mouse, in vivo, iv, 1 mg/kg, Table 3

For `CC(=O)N(C)C1CCN(c2cc(F)cc(NC(=O)c3cc4c(F)ccc(C)c4[nH]3)c2)C1` (stereo not drawn) [Compound 25, 4-fluoro-N-[3-fluoro-5-[3-(N-methylacetamido)pyrrolidin-1-yl]phenyl]-7-methyl-1H-indole-2-carboxamide], the Vd [1] was 1.04 L/kg and the “estimated Fa” value (mouse, 50 mpk) was <0.01 (50 mpk).
In the case of `Cc1ccc(F)c2cc(C(=O)N[C@@H]3CCC[C@H](N4CC[C@H](N(C)S(C)(=O)=O)C4)C3)[nH]c12` [Compound 32], the Vd [1] is reported as 8.13 L/kg, the half-life (CD1, mouse, in vivo, iv, 1 mg/kg, terminal t1/2, PK parameters (mouse), Table 3) is reported as 3.13 h and the fraction absorbed (mouse, 10 mpk, 0.5% CMC/0.1% Tween80) is reported as 0.6. For the same molecule, the “estimated Fa” value (mouse, 30 mpk) was 0.7 (30 mpk).
